From PubChem BioAssay (NCI)
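Results reflect a 48-hour exposure of cells in 96-well plates to compound at five concentrations. TGI is the concentration that stops growth completely.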

Tests used:
Assay in all cases: inhibition of tumour cell growth, NCI panel, 48 h
COLO 205 colon = tested on: COLO 205 colon
U251 CNS = tested on: U251 CNS
TK-10 renal = tested on: TK-10 renal
DLD-1 colon = tested on: DLD-1 colon
SK-MEL-28 melanoma = tested on: SK-MEL-28 melanoma
MALME-3M melanoma = tested on: MALME-3M melanoma
HOP-18 NSCLC = tested on: HOP-18 NSCLC
SW-620 colon = tested on: SW-620 colon
HL-60(TB) leukemia = tested on: HL-60(TB) leukemia
KM20L2 colon = tested on: KM20L2 colon
EKVX NSCLC = tested on: EKVX NSCLC
SNB-78 CNS = tested on: SNB-78 CNS
HOP-92 NSCLC = tested on: HOP-92 NSCLC
SF-268 CNS = tested on: SF-268 CNS
LXFL 529 NSCLC = tested on: LXFL 529 NSCLC
HCC-2998 colon = tested on: HCC-2998 colon
CAKI-1 renal = tested on: CAKI-1 renal
786-0 renal = tested on: 786-0 renal
UACC-257 melanoma = tested on: UACC-257 melanoma
M19-MEL melanoma = tested on: M19-MEL melanoma
SF-539 CNS = tested on: SF-539 CNS
NCI-H23 lung = tested on: NCI-H23 lung
ACHN renal = tested on: ACHN renal
OVCAR-5 ovarian = tested on: OVCAR-5 ovarian
HT29 colon = tested on: HT29 colon
OVCAR-4 ovarian = tested on: OVCAR-4 ovarian
RXF 393 renal = tested on: RXF 393 renal
SF-295 CNS = tested on: SF-295 CNS
SNB-75 CNS = tested on: SNB-75 CNS
UO-31 renal = tested on: UO-31 renal
OVCAR-8 ovarian = tested on: OVCAR-8 ovarian
SNB-19 CNS = tested on: SNB-19 CNS
NCI-H522 lung = tested on: NCI-H522 lung
DMS 273 small cell lung = tested on: DMS 273 small cell lung
NCI-H226 lung = tested on: NCI-H226 lung
NCI-H460 lung = tested on: NCI-H460 lung
LOX IMVI melanoma = tested on: LOX IMVI melanoma
SK-MEL-2 melanoma = tested on: SK-MEL-2 melanoma
SN12C renal = tested on: SN12C renal
M14 melanoma = tested on: M14 melanoma
SK-MEL-5 melanoma = tested on: SK-MEL-5 melanoma
CCRF-CEM leukemia = tested on: CCRF-CEM leukemia
DMS 114 small cell lung = tested on: DMS 114 small cell lung
A549 NSCLC = tested on: A549 NSCLC
HCT-15 colon = tested on: HCT-15 colon
SK-OV-3 ovarian = tested on: SK-OV-3 ovarian
IGROV1 ovarian = tested on: IGROV1 ovarian
K-562 leukemia = tested on: K-562 leukemia
RPMI-8226 leukemia = tested on: RPMI-8226 leukemia
HCT-116 colon = tested on: HCT-116 colon
OVCAR-3 ovarian = tested on: OVCAR-3 ovarian
HOP-62 NSCLC = tested on: HOP-62 NSCLC
KM12 colon = tested on: KM12 colon
UACC-62 melanoma = tested on: UACC-62 melanoma
XF 498 CNS = tested on: XF 498 CNS

Measured: TGI

CC1C(/C=C/c2ccoc2)ON2CCCC12 (configuration not stated)
not listed: M14 melanoma | SK-MEL-5 melanoma | CCRF-CEM leukemia | DMS 114 small cell lung | A549 NSCLC | HCT-15 colon | SK-OV-3 ovarian | IGROV1 ovarian | K-562 leukemia | RPMI-8226 leukemia | HCT-116 colon | OVCAR-3 ovarian | HOP-62 NSCLC | KM12 colon | UACC-62 melanoma | XF 498 CNS
> 100 µM: all other assays above

c1ccc(CCCC2Sc3cccc4cccc(c34)S2)cc1
not listed: HOP-18 NSCLC | UACC-257 melanoma
> 100 µM: all other assays above
